The values that follow are results of earlier work, collected in patent publication US6447754B1, “Oral rinse methods and compositions” (AkPharma Inc., priority 2000, dated 2002).

The conditions of this data set: in animals; ingestion.

“1,2,3-propanetriol, mono(dihydrogen phosphate) calcium salt (1:1) [CGP]”: the “upper limit of CGP which can safely be ingested” value is reported as “greater than 5 grams of CGP per kilogram of body weight”.
